In brackets after ≈: the same amount, converted by molar mass. Activity calls are given as the source filed them. The rule behind the calls is not given here.
Legend:
Candida albicans [1] = test: Synergetic antifungal activity against fluconazole-resistant Candida albicans 901 assessed as fractional inhibitory concentration index in presence of fluconazole by checker board microdilution assay; type: functional
[2] = Cytotoxicity against human BEAS-2B cell assessed as inhibition of cell growth after 24 hrs by MTT assay; type: toxicity, cell-based; conditions: BEAS-2B cells
Candida albicans [3] = test: Potentiation of fluconazole-induced antifungal activity against fluconazole-resistant Candida albicans 901 assessed as fluconazole MIC by checker board microdilution assay; type: functional
Candida albicans [4] = test: Antifungal activity against fluconazole-resistant Candida albicans 311 assessed as inhibition of fungal growth by checker board microdilution assay; type: functional
Candida albicans [5] = test: Synergistic antifungal activity against fluconazole-resistant Candida albicans 103 assessed as inhibition of fungal growth in presence of fluconazole by checker board microdilution assay; type: functional
CYP2C19 = CYP2C19 (Homo sapiens, UniProt P33261); test: Inhibition of CYP2C19 in human liver microsome at 10 uM using S-mephenytoin as substrate incubated for 10 mins in presence of NADPH cofactor by LC-MS/MS analysis; type: ADME; conditions: liver microsomes, probe S-mephenytoin
Candida albicans [6] = test: Synergetic antifungal activity against fluconazole-resistant Candida albicans 103 assessed as fractional inhibitory concentration index in presence of fluconazole by checker board microdilution assay; type: functional
CYP2C9 = CYP2C9 (Homo sapiens, UniProt P11712); test: Inhibition of CYP2C9 in human liver microsome at 10 uM using diclofenac as substrate incubated for 10 mins in presence of NADPH cofactor by LC-MS/MS analysis; type: ADME; conditions: liver microsomes, probe diclofenac
Candida albicans [7] = test: Synergistic antifungal activity against fluconazole-resistant Candida albicans 100 assessed as inhibition of fungal growth in presence of fluconazole by checker board microdilution assay; type: functional
Candida albicans [8] = test: Synergetic antifungal activity against fluconazole-resistant Candida albicans 100 assessed as fractional inhibitory concentration index in presence of fluconazole by checker board microdilution assay; type: functional
CYP2D6 = CYP2D6 (Homo sapiens, UniProt P10635); test: Inhibition of CYPD6 in human liver microsome at 10 uM using dextromethorphan as substrate incubated for 10 mins in presence of NADPH cofactor by LC-MS/MS analysis; type: ADME; conditions: liver microsomes, probe dextromethorphan
Heat shock protein HSP90 = Heat shock protein HSP90 (Homo sapiens, UniProt P07900+P08238); test: Binding affinity to human Hsp90 expressed in Escherichia coli by SPR assay
[9] = Metabolic stability in human liver microsomes assessed as microsomal intrinsic clearance in presence of NADPH cofactor under shaking condition for 10 mins measured after 5 to 60 mins by LC-MS/MS analysis; type: ADME, Microsome; conditions: time 15-70 min
[10] = Metabolic stability in human liver microsomes assessed as intrinsic clearance in presence of NADPH cofactor under shaking condition for 10 mins measured after 5 to 60 mins by LC-MS/MS analysis; type: ADME, Microsome; conditions: time 15-70 min
Candida albicans [11] = test: Synergistic antifungal activity against fluconazole-resistant Candida albicans 904 assessed as inhibition of fungal growth in presence of fluconazole by checker board microdilution assay; type: functional
HepG2 = test: Cytotoxicity against human HepG2 cell assessed as inhibition of cell growth after 24 hrs by MTT assay; type: functional, cell-based; conditions: HepG2, 24 h
[12] = Stability in human plasma assessed as compound remaining at 120 mins by LC-MS/MS analysis; type: ADME, cell-free; conditions: read-out: Stability
RAW264.7 = test: Cytotoxicity against mouse RAW264.7 cell assessed as inhibition of cell growth after 24 hrs by MTT assay; type: functional, cell-based; conditions: RAW264.7, 24 h
Candida albicans [13] = test: Synergistic antifungal activity against fluconazole-resistant Candida albicans 311 assessed as inhibition of fungal growth in presence of fluconazole by checker board microdilution assay; type: functional
Candida albicans [14] = test: Potentiation of fluconazole-induced antifungal activity against fluconazole-resistant Candida albicans 103 assessed as fluconazole MIC by checker board microdilution assay; type: functional
[15] = Cytotoxicity against human THLE-2 cell assessed as inhibition of cell growth after 24 hrs by MTT assay; type: toxicity, cell-based; conditions: THLE-2 cells
Candida albicans [16] = test: Synergetic antifungal activity against fluconazole-resistant Candida albicans 311 assessed as fractional inhibitory concentration index in presence of fluconazole by checker board microdilution assay; type: functional
Candida albicans [17] = test: Synergetic antifungal activity against fluconazole-resistant Candida albicans 904 assessed as fractional inhibitory concentration index in presence of fluconazole by checker board microdilution assay; type: functional
A549 = test: Cytotoxicity against human A549 cell assessed as inhibition of cell growth after 24 hrs by MTT assay; type: functional, cell-based; conditions: A549, 24 h
[18] = Stability in human plasma assessed as half life at 120 mins by LC-MS/MS analysis; type: ADME, cell-free
CYP1A2 = biological target: T1, CYP1A2 (Homo sapiens, UniProt P05177); test: Inhibition of CYP1A2 in human liver microsome at 10 uM using phenacetin as substrate incubated for 10 mins in presence of NADPH cofactor by LC-MS/MS analysis; type: ADME; conditions: liver microsomes, probe phenacetin
T1 sequence (P05177 whole entry): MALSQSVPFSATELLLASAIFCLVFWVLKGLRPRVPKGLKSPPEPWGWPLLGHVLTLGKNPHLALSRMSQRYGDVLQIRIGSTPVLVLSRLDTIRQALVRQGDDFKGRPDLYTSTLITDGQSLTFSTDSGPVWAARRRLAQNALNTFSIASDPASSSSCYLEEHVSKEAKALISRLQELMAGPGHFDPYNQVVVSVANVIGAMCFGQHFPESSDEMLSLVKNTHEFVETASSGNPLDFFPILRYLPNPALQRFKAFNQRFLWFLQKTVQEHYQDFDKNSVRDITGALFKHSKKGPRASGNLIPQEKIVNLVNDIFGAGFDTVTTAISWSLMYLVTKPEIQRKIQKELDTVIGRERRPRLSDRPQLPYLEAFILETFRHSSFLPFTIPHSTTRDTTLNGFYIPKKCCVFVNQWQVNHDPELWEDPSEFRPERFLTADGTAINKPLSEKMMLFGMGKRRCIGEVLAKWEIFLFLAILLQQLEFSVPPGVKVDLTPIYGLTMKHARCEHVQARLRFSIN

Candida albicans [19] = test: Synergetic antifungal activity against fluconazole-resistant Candida albicans 632 assessed as fractional inhibitory concentration index in presence of fluconazole by checker board microdilution assay; type: functional
CYP3A4 = CYP3A4 (Homo sapiens, UniProt P08684); test: Inhibition of CYP3A4 in human liver microsome at 10 uM using midazolam as substrate incubated for 10 mins in presence of NADPH cofactor by LC-MS/MS analysis; type: ADME; conditions: liver microsomes, probe midazolam
Candida albicans [20] = test: Potentiation of fluconazole-induced antifungal activity against fluconazole-resistant Candida albicans 311 assessed as fluconazole MIC by checker board microdilution assay; type: functional
Candida albicans [21] = test: Potentiation of fluconazole-induced antifungal activity against fluconazole-resistant Candida albicans 100 assessed as fluconazole MIC by checker board microdilution assay; type: functional
Candida albicans [22] = test: Antifungal activity against fluconazole-resistant Candida albicans 100 assessed as inhibition of fungal growth by checker board microdilution assay; type: functional
Candida albicans [23] = test: Antifungal activity against fluconazole-resistant Candida albicans 103 assessed as inhibition of fungal growth by checker board microdilution assay; type: functional
Candida albicans [24] = test: Potentiation of fluconazole-induced antifungal activity against fluconazole-resistant Candida albicans 904 assessed as fluconazole MIC by checker board microdilution assay; type: functional
[25] = Cytotoxicity against mouse NIH3T3 cell assessed as inhibition of cell growth after 24 hrs by MTT assay; type: toxicity, cell-based; conditions: NIH3T3 cells
Candida albicans [26] = test: Potentiation of fluconazole-induced antifungal activity against fluconazole-resistant Candida albicans 632 assessed as fluconazole MIC by checker board microdilution assay; type: functional
[27] = Metabolic stability in human liver microsomes assessed as compound remaining in presence of NADPH cofactor under shaking condition for 10 mins measured after 60 mins by LC-MS/MS analysis; type: ADME, Microsome; conditions: time 70 min, read-out: Stability
Candida albicans [28] = test: Antifungal activity against fluconazole-resistant Candida albicans 632 assessed as inhibition of fungal growth by checker board microdilution assay; type: functional
Candida albicans [29] = test: Synergistic antifungal activity against fluconazole-resistant Candida albicans 901 assessed as inhibition of fungal growth in presence of fluconazole by checker board microdilution assay; type: functional
Candida albicans [30] = test: Antifungal activity against fluconazole-resistant Candida albicans 901 assessed as inhibition of fungal growth by checker board microdilution assay; type: functional
[31] = Cytotoxicity against mouse BV-2 cell assessed as inhibition of cell growth after 24 hrs by MTT assay; type: toxicity, cell-based; conditions: BV-2 cells
MCF7 = test: Cytotoxicity against human MCF7 cell assessed as inhibition of cell growth after 24 hrs by MTT assay; type: functional, cell-based; conditions: MCF7, 24 h
Candida albicans [32] = test: Synergistic antifungal activity against fluconazole-resistant Candida albicans 632 assessed as inhibition of fungal growth in presence of fluconazole by checker board microdilution assay; type: functional
Candida albicans [33] = test: Antifungal activity against fluconazole-resistant Candida albicans 904 assessed as inhibition of fungal growth by checker board microdilution assay; type: functional
[34] = Binding affinity to recombinant Candida albicans Hsp90 NBD expressed in Escherichia coli by SPR assay
[35] = Metabolic stability in human liver microsomes assessed as half life in presence of NADPH cofactor under shaking condition for 10 mins measured after 5 to 60 mins by LC-MS/MS analysis; type: ADME, Microsome; conditions: time 15-70 min
Candida albicans [36] = test: Antibiofilm activity against Candida albicans 904 assessed as inhibition of […] metabolism within the biofilm after 24 hrs by XTT reduction assay; type: functional
Candida albicans [37] = test: Reversal of fluconazole mediated azole resistant Candida albicans 904 assessed as upregulation of CDR2 expression at 32 ug/ml by RT-PCR; type: functional, organism-based; conditions: dose 32.0 µg/ml
Candida albicans [38] = test: Reversal of fluconazole mediated azole resistant Candida albicans 904 assessed as upregulation of CDR1 expression at 32 ug/ml by RT-PCR; type: functional, organism-based; conditions: dose 32.0 µg/ml
Candida albicans [39] = test: Fungicidal activity against Candida albicans 904 assessed as colony forming at 4 times MIC incubated for 48 hrs by time-kill curve assay; type: functional
Candida albicans [40] = test: Antibiofilm activity against Candida albicans 904 assessed as inhibition of […] metabolism within the biofilm after 48 hrs by XTT reduction assay; type: functional

CYP2C9, sequence (P11712 whole entry): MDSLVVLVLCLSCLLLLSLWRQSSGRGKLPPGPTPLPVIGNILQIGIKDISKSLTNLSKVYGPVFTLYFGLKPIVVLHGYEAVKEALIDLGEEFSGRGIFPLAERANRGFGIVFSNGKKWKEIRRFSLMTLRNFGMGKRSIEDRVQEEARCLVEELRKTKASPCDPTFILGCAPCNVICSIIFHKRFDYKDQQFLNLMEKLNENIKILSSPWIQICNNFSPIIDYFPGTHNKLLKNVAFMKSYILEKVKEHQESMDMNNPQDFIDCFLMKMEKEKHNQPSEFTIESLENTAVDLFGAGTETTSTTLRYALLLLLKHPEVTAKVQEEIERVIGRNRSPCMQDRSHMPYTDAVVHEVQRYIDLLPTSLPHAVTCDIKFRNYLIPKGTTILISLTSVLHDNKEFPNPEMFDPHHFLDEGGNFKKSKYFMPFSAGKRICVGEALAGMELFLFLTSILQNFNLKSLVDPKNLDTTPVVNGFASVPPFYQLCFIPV
CYP2C19, sequence (P33261 whole entry): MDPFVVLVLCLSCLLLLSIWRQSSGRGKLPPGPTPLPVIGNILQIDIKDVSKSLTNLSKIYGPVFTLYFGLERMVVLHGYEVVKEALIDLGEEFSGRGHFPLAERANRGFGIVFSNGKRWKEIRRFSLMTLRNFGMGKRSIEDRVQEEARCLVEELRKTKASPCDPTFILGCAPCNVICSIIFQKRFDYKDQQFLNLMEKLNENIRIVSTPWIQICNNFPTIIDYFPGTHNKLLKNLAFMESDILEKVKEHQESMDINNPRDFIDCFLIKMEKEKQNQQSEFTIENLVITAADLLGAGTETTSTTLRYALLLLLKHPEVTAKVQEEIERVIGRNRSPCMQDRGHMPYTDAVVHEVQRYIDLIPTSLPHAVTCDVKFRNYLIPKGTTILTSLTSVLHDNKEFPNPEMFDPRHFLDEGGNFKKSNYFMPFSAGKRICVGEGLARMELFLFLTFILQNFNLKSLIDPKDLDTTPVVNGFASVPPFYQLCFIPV
CYP3A4, sequence (P08684 whole entry): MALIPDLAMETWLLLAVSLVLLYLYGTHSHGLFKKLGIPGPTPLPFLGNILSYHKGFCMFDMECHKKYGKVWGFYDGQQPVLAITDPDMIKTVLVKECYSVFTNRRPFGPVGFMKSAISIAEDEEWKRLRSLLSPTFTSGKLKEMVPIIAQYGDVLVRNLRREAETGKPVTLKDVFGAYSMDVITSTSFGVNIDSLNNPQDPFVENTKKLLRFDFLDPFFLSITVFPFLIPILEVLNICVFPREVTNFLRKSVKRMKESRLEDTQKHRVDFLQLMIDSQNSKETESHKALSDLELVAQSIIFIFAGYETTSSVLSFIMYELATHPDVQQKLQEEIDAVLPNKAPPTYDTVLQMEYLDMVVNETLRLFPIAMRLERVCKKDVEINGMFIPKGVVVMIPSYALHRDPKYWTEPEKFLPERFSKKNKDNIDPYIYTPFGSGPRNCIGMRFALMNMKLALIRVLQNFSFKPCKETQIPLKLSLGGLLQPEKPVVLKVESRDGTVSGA
CYP2D6, sequence (P10635 whole entry): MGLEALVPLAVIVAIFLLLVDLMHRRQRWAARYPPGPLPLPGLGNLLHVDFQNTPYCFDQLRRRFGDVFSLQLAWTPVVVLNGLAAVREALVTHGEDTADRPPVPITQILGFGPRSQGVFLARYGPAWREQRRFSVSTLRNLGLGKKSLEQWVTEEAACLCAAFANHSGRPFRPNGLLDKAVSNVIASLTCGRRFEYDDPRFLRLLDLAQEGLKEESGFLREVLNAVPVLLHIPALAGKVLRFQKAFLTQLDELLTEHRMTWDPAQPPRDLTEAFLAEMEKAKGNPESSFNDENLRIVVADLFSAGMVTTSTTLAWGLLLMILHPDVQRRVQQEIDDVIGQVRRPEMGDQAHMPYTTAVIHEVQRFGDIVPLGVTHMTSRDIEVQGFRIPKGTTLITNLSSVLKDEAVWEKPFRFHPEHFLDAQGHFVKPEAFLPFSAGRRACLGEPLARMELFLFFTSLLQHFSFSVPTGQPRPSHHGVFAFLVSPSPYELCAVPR

CCNC(=O)c1noc(-c2cc(-c3ccc(C)cc3)c(O)cc2O)c1-c1ccc(CN2CCCCC2)cc1
fractional inhibitory concentration index (FICI) (Candida albicans [1]): 0.02
IC50 at 24 h [2]: 10 µM
MIC80 (Candida albicans [3]): 1 µg/mL
MIC80 (Candida albicans [4]): > 64 µg/mL
MIC80 (Candida albicans [5]): 0.5 µg/mL
inhibition at 10 min, 10 µM (CYP2C19): 25.4%
fractional inhibitory concentration index (FICI) (Candida albicans [6]): 0.039
inhibition at 10 min, 10 µM (CYP2C9): 39.2%
MIC80 (Candida albicans [7]): 0.25 µg/mL
fractional inhibitory concentration index (FICI) (Candida albicans [8]): 0.02
inhibition at 10 min, 10 µM (CYP2D6): 76.6%
Kd (Heat shock protein HSP90): > 25 µM
CLint [9]: 32 µL/min/mg
CLint [10]: 28.8 mL/min/kg
MIC80 (Candida albicans [11]): 0.25 µg/mL
IC50 (HepG2): 4.71 µM
remaining at 2 h [12]: 90.6%
IC50 (RAW264.7): 3.87 µM
MIC80 (Candida albicans [13]): 1 µg/mL
MIC80 (Candida albicans [14]): 2 µg/mL
IC50 at 24 h [15]: 5.72 µM
fractional inhibitory concentration index (FICI) (Candida albicans [16]): 0.047
fractional inhibitory concentration index (FICI) (Candida albicans [17]): 0.035
IC50 (A549): 13.8 µM
half-life [18]: > 288 min
inhibition at 10 min, 10 µM (CYP1A2): 12%
fractional inhibitory concentration index (FICI) (Candida albicans [19]): 0.039
inhibition at 10 min, 10 µM (CYP3A4): 39.8%
MIC80 (Candida albicans [20]): 2 µg/mL
MIC80 (Candida albicans [21]): 1 µg/mL
MIC80 (Candida albicans [22]): > 64 µg/mL
MIC80 (Candida albicans [23]): > 64 µg/mL
MIC80 (Candida albicans [24]): 2 µg/mL
IC50 at 24 h [25]: 0.73 µM
MIC80 (Candida albicans [26]): 2 µg/mL
remaining at 1.167 h [27]: 37.9%
MIC80 (Candida albicans [28]): > 64 µg/mL
MIC80 (Candida albicans [29]): 0.25 µg/mL
MIC80 (Candida albicans [30]): > 64 µg/mL
IC50 at 24 h [31]: 4.06 µM
IC50 (MCF7): 5.49 µM
MIC80 (Candida albicans [32]): 0.5 µg/mL
MIC80 (Candida albicans [33]): > 64 µg/mL
Kd [34]: 0.139 µM
half-life [35]: 43.3 min

OC(Cn1cncn1)(Cn1cncn1)c1ccc(F)cc1F [FLUCONAZOLE]
MIC80 (Candida albicans [4]): 64 µg/mL
MIC80 (Candida albicans [5]): > 64 µg/mL
MIC80 (Candida albicans [7]): > 64 µg/mL
MIC50 (Candida albicans [36]): 32 µg/mL (≈ 104 µM)
Activity (Candida albicans [37]): Active
MIC80 (Candida albicans [11]): > 64 µg/mL
MIC80 (Candida albicans [13]): > 64 µg/mL
Activity (Candida albicans [38]): Active
MIC80 (Candida albicans [22]): > 64 µg/mL
MIC80 (Candida albicans [23]): 64 µg/mL
MIC80 (Candida albicans [28]): > 64 µg/mL
MIC80 (Candida albicans [29]): > 64 µg/mL
MFC (Candida albicans [39]): > 64 µg/mL
MIC80 (Candida albicans [30]): > 64 µg/mL
MIC50 (Candida albicans [40]): > 64 µg/mL
MIC80 (Candida albicans [32]): > 64 µg/mL
MIC80 (Candida albicans [33]): > 64 µg/mL
